Like-named read-outs stand apart in the source and are kept apart here.

The conditions of series [1]: cited from earlier work. The source says:
AOP antioxidant activity is primarily assessed through chemical and cell modeling methods. The chemical method for evaluating AOP antioxidant activity can be categorized into two main types: hydrogen atom transfer and electron transfer. In assays such as hydroxyl and DPPH radical scavenging, AOP transforms free radicals into anions via electron transfer. Moreover, in the lipid peroxidation inhibition assay, AOP hinders lipid peroxidation by releasing hydrogen atoms, thereby deactivating free radicals.

For series [2] the following is noted: cited from earlier work; for DPPH free-radical scavenging IC50: AOPs from skipjack tuna protein extract. The source says: The virtual screening method, employing peptide affinity for Keap1 as a screening parameter, exclusively confirms the capability of CP1 to activate the Keap1/Nrf2 pathway. On the other hand, the chromatographic method, utilizing the free-radical scavenging rate as a screening metric, solely validates the ability of CP2 to scavenge free radicals. […] The chemical method for evaluating AOP antioxidant activity can be categorized into two main types: hydrogen atom transfer and electron transfer. In assays such as hydroxyl and DPPH radical scavenging, AOP transforms free radicals into anions via electron transfer. Moreover, in the lipid peroxidation inhibition assay, AOP hinders lipid peroxidation by releasing hydrogen atoms, thereby deactivating free radicals.

Series [3] in a line: Antioxidant stability under simulated digestion. In kind it is in vitro ADME. As to conditions: simulated GI (gastrointestinal) digestion versus G digestion; not significant (p > 0.05). From the text: We refer to Chai et al. and Gallego et al. methods to evaluate the antioxidant stability of AOPs at different temperatures, pH levels, and simulated digestion conditions.
Series [4] relates to RAW264.7 cells. Kind of series: Survival of normal cells (MTS). The class given is cell-based. As to conditions: 24 h. The procedure:
Pre-cultured RAW264.7 cells were allocated into groups C, CP1, and CP2. Group C received 100 μL of complete medium, while groups CP1 and CP2 were supplemented with 100 μL of complete medium containing CP1 and CP2, respectively, at final concentrations of 1.25, 2.5, 5, 10, 20, and 40 μg/mL. The cells were then incubated for 24 h before discarding the medium. Cell viability was assessed using the MTS method to identify non-toxic concentration ranges for subsequent experiments.

The test system of series [5] is RAW264.7 cells. The note with it: MTS; for cell survival rate: mean ± SD. The procedure:
RAW264.7 cells were cultured in a 5% CO2 environment at 37 °C using a specific complete medium (DMEM (PM150210) + 10% FBS (164210-50) + 1%P/S (PB180120)) designed for RAW264.7 cells. Cells in the logarithmic growth phase were harvested and seeded into 96-well plates at a density of 1 × 10^5 cells/mL per well with 100 μL of inoculation volume. Subsequently, the plates were pre-cultured for 12 h at 37 °C in a 5% CO2 atmosphere, following which the medium was removed.
The pre-cultured RAW264.7 cells were then divided into control (C) and model (M) groups. Then, 100 μL of complete medium was added to group C, and 100 μL of complete medium containing concentrations of 250, 300, 350, 400, and 450 μmol/L H2O2 was added to group M. After continuing the incubation for 6 h, the medium was discarded. Cell viability was assessed using the MTS method. The optimal H2O2 concentration for inducing the oxidative stress model was determined when cell viability decreased to 50%, ensuring that the cells maintained a specific viability level while meeting the damage criteria.

For the molecule YFLWP, the “IC50 hydroxyl radical scavenging” value in series [1] (yellow croaker AOP) was 2470 µg/mL. Further, the “IC50 DPPH radical scavenging” value in series [2] (yellow croaker AOP) was 1590 µg/mL.

With EVGK [duck blood AOP, literature], the “transition metal chelation rate” value in series [1] (0.5 mg/mL, duck blood AOP) was 16.35%. For the same molecule, in series [2] (0.5 mg/mL, duck blood AOP), the “DPPH radical scavenging rate” value is reported as 26.63%.

On to LCGEC [tuna AOP, literature], for which the “DPPH radical scavenging rate” value in series [2] (1 mg/mL, tuna AOP) is 16.83%. For the same molecule, in series [2] (tuna AOP), the “DPPH radical scavenging rate, IC50” value is reported as “exceeded 10 mg/mL”.

For “QAEP [AOP from skipjack tuna protein extract, literature]”, in series [2], the “DPPH free-radical scavenging IC50” value is 1110 µg/mL.

In the case of YGPEP [sheepskin AOP, literature], in series [1] (sheepskin AOP), the “IC50 lipid peroxidation inhibition rate” value is 3940 µg/mL.

For the molecule “QEAE [AOP from skipjack tuna protein extract, literature]”, the “DPPH free-radical scavenging IC50” value in series [2] was 1770 µg/mL.

Take H-ANNGKQWAEVF-OH [CP1]: in series [3], the “reduction of free-radical scavenging rate” value is on record as 38.64%. In addition, the “cell viability of normal cells versus group C” value with RAW264.7 cells [4] (RAW264.7, 40.00 μg/mL) is given as “significantly lower than that of group C”; in the series with RAW264.7 cells [4] (RAW264.7, 1.25 to 20.00 μg/mL), “did not show a significant difference compared to group C”.

As for H-QPGLPGPAG-OH [CP2], in series [3], the “reduction of free-radical scavenging rate” value is 34.01%. Also, the “cell viability of normal cells versus group C” value is listed as “significantly lower than that of group C” with RAW264.7 cells [4] (RAW264.7, 40.00 μg/mL) and “did not show a significant difference compared to group C” in the series on RAW264.7 cells [4] (RAW264.7, 1.25 to 20.00 μg/mL).

As to `OO` [Peptide H2O2, hydrogen peroxide], the cell activity result in the series with RAW264.7 cells [5] (RAW264.7, 200 μmol/L H2O2, 6 h) is reported as “exceeded 90%”. The cell survival rate with RAW264.7 cells [5] (RAW264.7, 250 μmol/L H2O2, 6 h) came out at 83.51 ± 6.15%; in the series on RAW264.7 cells [5] (RAW264.7, 300 μmol/L H2O2, 6 h), 79.06 ± 3.21%; in the series with RAW264.7 cells [5] (RAW264.7, 350 μmol/L H2O2, 6 h), 64.73 ± 0.99%; in the series with RAW264.7 cells [5] (RAW264.7, 400 μmol/L H2O2, 6 h), 48.68 ± 5.48%; in the series with RAW264.7 cells [5] (RAW264.7, 450 μmol/L H2O2, 6 h) it was 26.10 ± 1.65%.

Source of the values: publication PMC11352039, “Isolation and Characterization of Antioxidant Peptides from Dairy Cow (Bos taurus) Placenta and Their Antioxidant Activities” (Antioxidants, 2024).
